Each block holds one compound with its values, some of them ahead of it.
Columns and labels:
[1] = biological target: T1, soluble guanylate cyclase (sGC) (Bos taurus, UniProt P16068); experiment: Activation of the soluble guanylate cyclase (cGMP enzyme immunoassay); assay type: biochemical, bovine; settings: n-fold stimulation of basal enzyme activity
T1 construct: The sGC which was employed had been isolated from bovine lung; from tissue; host or cells: bovine lung
T1 sequence (P16068 1-619): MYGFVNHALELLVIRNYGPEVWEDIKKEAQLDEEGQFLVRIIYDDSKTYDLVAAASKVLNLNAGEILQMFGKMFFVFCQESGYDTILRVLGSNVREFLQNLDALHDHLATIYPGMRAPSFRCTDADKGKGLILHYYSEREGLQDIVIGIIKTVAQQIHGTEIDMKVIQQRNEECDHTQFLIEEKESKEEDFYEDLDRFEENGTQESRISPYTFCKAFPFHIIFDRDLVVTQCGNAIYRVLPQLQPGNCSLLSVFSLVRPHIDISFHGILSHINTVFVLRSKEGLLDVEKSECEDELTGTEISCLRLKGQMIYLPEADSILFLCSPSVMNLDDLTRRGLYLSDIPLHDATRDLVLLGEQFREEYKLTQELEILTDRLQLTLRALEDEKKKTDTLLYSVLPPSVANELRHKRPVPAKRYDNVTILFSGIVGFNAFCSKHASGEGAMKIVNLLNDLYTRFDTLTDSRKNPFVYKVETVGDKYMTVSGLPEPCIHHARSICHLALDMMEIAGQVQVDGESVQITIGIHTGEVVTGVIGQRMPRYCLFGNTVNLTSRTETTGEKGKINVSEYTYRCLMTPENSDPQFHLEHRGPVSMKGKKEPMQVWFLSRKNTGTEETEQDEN
T1 sequence (P19687 1-691 partner): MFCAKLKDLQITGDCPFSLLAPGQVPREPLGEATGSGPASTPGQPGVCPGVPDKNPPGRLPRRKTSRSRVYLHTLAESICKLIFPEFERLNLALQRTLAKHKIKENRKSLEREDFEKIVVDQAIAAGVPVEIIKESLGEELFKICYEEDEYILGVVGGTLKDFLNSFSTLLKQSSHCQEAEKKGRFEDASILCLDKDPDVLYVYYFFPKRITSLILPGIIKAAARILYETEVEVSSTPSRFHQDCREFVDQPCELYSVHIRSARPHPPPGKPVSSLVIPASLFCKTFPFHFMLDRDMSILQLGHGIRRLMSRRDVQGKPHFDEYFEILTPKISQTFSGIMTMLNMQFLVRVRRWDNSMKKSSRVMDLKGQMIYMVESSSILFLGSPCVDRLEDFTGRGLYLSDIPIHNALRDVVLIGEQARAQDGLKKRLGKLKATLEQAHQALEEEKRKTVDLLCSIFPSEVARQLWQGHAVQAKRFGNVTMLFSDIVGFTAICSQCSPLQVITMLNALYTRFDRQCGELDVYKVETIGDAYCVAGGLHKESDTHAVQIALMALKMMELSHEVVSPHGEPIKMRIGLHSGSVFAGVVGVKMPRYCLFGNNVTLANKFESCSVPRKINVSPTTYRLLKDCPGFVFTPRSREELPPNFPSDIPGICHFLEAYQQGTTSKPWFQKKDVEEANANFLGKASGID
Protocol: The activation of the soluble guanylate cyclase (sGC) which catalyzes the conversion of guanosine triphosphate (GTP) into cyclic guanosine monophosphate (cGMP) and pyrophosphate, by the compounds according to the invention was quantified with the aid of an enzyme immunoassay (EIA) from Amersham. For this purpose the substances to be tested were initially incubated with sGC in microtiter plates, and the amount of the cGMP formed was then determined.
The sGC which was employed had been isolated from bovine lung (see Methods in Enzymology, Volume 195, p. 377). The test solutions (100 μl per well) contained 50 mM triethanolamine (TEA) buffer (pH 7.5), 3 mM MgCl2, 3 mM reduced glutathione (GSH), 0.1 mM GTP, 1 mM 3-isobutyl-1-methylxanthine (IBMX), suitably diluted enzyme solution and the substance to be tested or, in the control experiments, the solvent. The substances to be tested were dissolved in dimethyl sulfoxide (DMSO) and the solution was diluted with DMSO/water, so that the final concentration (c) of the substance to be tested in the test solution had the value indicated in the table. The DMSO concentration in the test solution was 5% (v/v). The reaction was initiated by addition of the sGC. The reaction mixture was incubated at 37° C. for 15 to 20 minutes and then stopped by ice-cooling and addition of the stop reagent (50 mM EDTA, pH 8.0). An aliquot of 50 μl was taken and used for determining the cGMP content using the acetylation protocol of the Amersham cGMP-EIA kit. The absorption of the samples was measured at 450 nm (reference wavelength 620 nm) in a microtiter plate reader. The cGMP concentration was determined using a standard curve which was obtained under the same test conditions. The activation of sGC by a test substance is given as the n-fold stimulation of the basal enzyme activity which was found in the control experiments (using solvent instead of test substance) (calculated using the formula n-fold stimulation=[cGMP]test substance/[cGMP]control).

rat aorta rings = experiment: Relaxation of rat aorta (phenylephrine-precontracted rings); assay type: cell-based, rat (Wistar-Kyoto); settings: 50% relaxation of phenylephrine (1 μM) contraction
Text: For this test, normotensive male Wistar-Kyoto rats were sacrificed by a blow to the neck. The abdominal cavity and the thorax were opened by a medium stemotomy. The descending aorta was subsequently removed, freed of connective tissue and divided into 8 rings of a length of approximately 4 mm. The tip of a pair of tweezers was introduced into the lumen of 4 of the 8 rings. The endothelium was removed by carefully rolling the rings over the tip of the pair of tweezers. All 8 aorta rings (4 with endothelium and 4 without endothelium) were subsequently suspended in an organ bath (Schuler-Organbad; Hugo Sachs Elektronik) at a constant temperature of 37° C. for the isometric determination of the contractile tone. For 30 minutes, the rings were calibrated at a resting tension of 0.1 g in carbonated (95% O2; 5% CO2) Krebs-Henseleit solution (composition: Na^+ 144.0 mM; K^+ 5.9 mM; Cl^− 126.9 mM; Ca^2+ 1.6 mM; […] 1.2 mM; H2PO4^− 1.2 mM; SO4^2− 1.2 mM; HCO3^− 25.0 mM; D-glucose 11.1 mM) of pH 7.4. Additionally, 1 μmol/l of indomethacin were added to the Krebs-Henseleit solution to inhibit prostaglandin biosynthesis. The rings were subsequently precontracted by addition of phenylephrine (concentration in the solution: 1 μM) and the endothelium-dependent relaxation or the functional loss of the endothelium was tested by addition of acetylcholine (concentration in the solution: 1 μM). After a 30-minute washing period, the rings were then again precontracted by addition of phenylephrine (1 μM), and the relaxing action of the test substances of the formula I was determined by administration of cumulative doses of the latter. The data were evaluated by standard methods. Given is the concentration IC50 by which contraction is inhibited by 50% (50% relaxation).

pig = experiment: Hemodynamic effect in the pig; assay type: in vivo, pig (German landrace); settings: 10 mg/kg i.d., anesthetized pigs
Protocol: Three pigs (German landrace) were anesthetized (Ketamine 20 mg/kg i.m., Methomidate 8 mg/kg i.p., Xylazine 2.5 mg/kg i.m. and Pentobarbital 25 mg/kg i.v. as a bolus plus 0.16 mg/kg per minute). The trachea was intubated and the animals were given artificial respiration with air. Oxygen was added to keep the blood gas parameters in the normal range. To record the blood pressure (BP; BP(s)=systolic blood pressure, BP(d)=diastolic blood pressure) by means of a Statham 23 Db pressure transducer a catheter was inserted into the right A. Femoralis. The left ventricular pressure (LVP), the left ventricular end-diastolic pressure (LVEDP), the contractility (dP/dt) and the heart rate (HR) were determined with a Millar PC 350 catheter “tip manometer” which was inserted into the […] ventricle. After a stabilization period of the hemodynamic parameters of 30 minutes the test substance was administered in the indicated dose into the exposed duodenum by means of a catheter. The determined data were evaluated according to standard methods. Given are the means and the standard deviations (M±SEM) of the starting values and of the maximal changes of the individual parameters (=maximal effects).

n-fold stimulation ([1]; concentration c 50 μM): 34.8 | IC50 (rat aorta rings; ring with endothelium): 520 nM | IC50 (rat aorta rings; ring without endothelium): 270 nM
SMILES: COc1cc(NS(=O)(=O)c2ccc(Cl)cc2)c(C(=O)Nc2ccc(S(=O)(=O)N3CCSCC3)cc2)cc1OC [Example 59, 2-(4-Chloro-phenylsulfonylamino)-4,5-dimethoxy-N-(4-(thiomorpholine-4-sulfonyl)-phenyl)-benzamide]

n-fold stimulation ([1]; concentration c 50 μM): 24.4 | IC50 (rat aorta rings; ring with endothelium): 670 nM | IC50 (rat aorta rings; ring without endothelium): 290 nM
SMILES: COc1cc(NS(=O)(=O)c2ccc(Cl)cc2)c(C(=O)Nc2ccc(S(=O)(=O)N3C[C@@H](C)O[C@@H](C)C3)cc2)cc1OC [Example 88, 2-(4-Chloro-phenylsulfonylamino)-N-(4-(cis-2,6-dimethyl-morpholine-4-sulfonyl)-phenyl)-4,5-dimethoxy-benzamide]
BP(d) duration of action (pig): >0.125 days | BP(s) duration of action (pig): >10800 s | HR duration of action (pig): >180 min | LVEDP duration of action (pig): >180 min | dP/dtmax duration of action (pig): >180 min | dP/dtmax maximal alteration (pig; contractility, M±SEM): −633 ± 33 mm Hg/sec | BP(d) maximal alteration (pig; diastolic blood pressure, M±SEM): −20 ± 8 mm Hg | HR maximal alteration (pig; heart rate, M±SEM): −8 ± 2 beats/min | LVEDP maximal alteration (pig; left ventricular end-diastolic pressure, M±SEM): −1.3 ± 0.3 mm Hg | BP(s) maximal alteration (pig; systolic blood pressure, M±SEM): −23 ± 6 mm Hg

n-fold stimulation ([1]; concentration c 50 μM): 8.6 | IC50 (rat aorta rings; ring with endothelium): 460 nM | IC50 (rat aorta rings; ring without endothelium): 310 nM
SMILES: O=C(Nc1ccc(S(=O)(=O)N2CCOCC2)cc1)c1cc(Cl)ccc1NS(=O)(=O)c1ccc(Cl)s1 [Example 129, 5-Chloro-2-(5-chloro-thiophene-2-sulfonylamino)-N-(4-(morpholine-4-sulfonyl)-phenyl)-benzamide]

n-fold stimulation ([1]; concentration c 50 μM): 19.3
SMILES: COc1cc(NS(=O)(=O)c2ccc(Cl)s2)c(C(=O)Nc2ccc(S(=O)(=O)N3CCSCC3)cc2)cc1OC [Example 206, 4,5-Dimethoxy-2-(5-chloro-thiophene-2-sulfonylamino)-N-(4-(thiomorpholine-4-sulfonyl)-phenyl)-benzamide]

n-fold stimulation ([1]; concentration c 10 μM): 23.1
SMILES: Cc1noc(C)c1S(=O)(=O)Nc1ccc(Cl)cc1C(=O)Nc1ccc(S(=O)(=O)N2CCc3ccccc3C2)cc1 [Example 208, 5-Chloro-2-(3,5-dimethyl-isoxazole-4-sulfonylamino)-N-(4-(1,2,3,4-tetrahydro-isoquinoline-2-sulfonyl)-phenyl)-benzamide]

n-fold stimulation ([1]; concentration c 10 μM): 28.5
SMILES: Cc1noc(C)c1S(=O)(=O)Nc1ccc(Cl)cc1C(=O)Nc1ccc(S(=O)(=O)N(C)Cc2cccnc2)cc1 [Example 209, 5-Chloro-2-(3,5-dimethyl-isoxazde-4-sulfonylamino)-N-(4-(N-methyl-N-(pyridin-3-yl-methyl)-aminosulfonyl)-phenyl)-benzamide]

n-fold stimulation ([1]; concentration c 10 μM): 29.5
SMILES: Cc1noc(C)c1S(=O)(=O)Nc1ccc(Cl)cc1C(=O)Nc1ccc(S(=O)(=O)N2C[C@@H](C)O[C@@H](C)C2)cc1 [Example 222, 5-Chloro-2-(3,5-dimethyl-isoxazole-4-sulfonylamino)-N-(4-(cis-2,6-dimethyl-morpholine-4-sulfonyl)-phenyl)-benzamide]

n-fold stimulation ([1]; concentration c 10 μM): 27.1
SMILES: Cc1noc(C)c1S(=O)(=O)Nc1ccc(Cl)cc1C(=O)Nc1ccc(S(=O)(=O)N2CC(C)CC(C)C2)cc1 (stereo not drawn) [Example 223, 5-Chloro-2-(3,5-dimethyl-isoxazole-4-sulfonylamino)-N-(4-(3,5-dimethylpiperidine-1-sulfonyl)-phenyl)-benzamide]

n-fold stimulation ([1]; concentration c 50 μM): 27.8
SMILES: Cc1noc(C)c1S(=O)(=O)Nc1ccc(Cl)cc1C(=O)Nc1ccc(S(=O)(=O)N2CCOCC2)cc1 [Example 224, 5-Chloro-2-(3,5-dimethyl-isoxazole-4-sulfonylamino)-N-(4-(morpholine-4-sulfonyl)-phenyl)-benzamide]

n-fold stimulation ([1]; concentration c 10 μM): 13.4
SMILES: O=C(Nc1ccc(S(=O)(=O)c2ccccc2)cc1)c1cc(Cl)ccc1NS(=O)(=O)c1ccc(Cl)s1 [Example 225]

n-fold stimulation ([1]; concentration c 25 μM): 3.3
SMILES: C[C@@H]1CN(S(=O)(=O)c2ccc(NC(=O)c3ccc(Cl)cc3NS(=O)(=O)c3ccc(Cl)cc3)cc2)C[C@H](C)O1 [Example 226, 4-Chloro-2-(4-chloro-phenylsulfonylamino)-N-(4-(cis-2,6-dimethyl-morpholine-4-sulfonyl)-phenyl)-benzamide]

Reference: patent US8541410B2, “Sulfur substituted sulfonylaminocarboxylic acid N-arylamides, their preparation, their use and pharmaceutical preparations comprising them” (Sanofi-aventis Deutschland GmbH, priority 1998, dated 2013)
